Test results as given in US20150352108A1, “AMINO-PYRIMIDINE COMPOUNDS AS INHIBITORS OF TBK1 AND/OR IKK EPSILON” (Alzheimer's Institute of America, priority 2009, published 2015).

The compounds below were run against T1, IKKε (Homo sapiens, UniProt Q14164) (assay: In-vitro IKKε kinase assay ([γ33]ATP filter-plate)). Conditions: text bins; read-out: IC50 for inhibition of the kinase activity of IKKε.
T1 construct: His-tag; made in house; host or cells: Sf9 insect cells
T1 sequence (Q14164 1-716): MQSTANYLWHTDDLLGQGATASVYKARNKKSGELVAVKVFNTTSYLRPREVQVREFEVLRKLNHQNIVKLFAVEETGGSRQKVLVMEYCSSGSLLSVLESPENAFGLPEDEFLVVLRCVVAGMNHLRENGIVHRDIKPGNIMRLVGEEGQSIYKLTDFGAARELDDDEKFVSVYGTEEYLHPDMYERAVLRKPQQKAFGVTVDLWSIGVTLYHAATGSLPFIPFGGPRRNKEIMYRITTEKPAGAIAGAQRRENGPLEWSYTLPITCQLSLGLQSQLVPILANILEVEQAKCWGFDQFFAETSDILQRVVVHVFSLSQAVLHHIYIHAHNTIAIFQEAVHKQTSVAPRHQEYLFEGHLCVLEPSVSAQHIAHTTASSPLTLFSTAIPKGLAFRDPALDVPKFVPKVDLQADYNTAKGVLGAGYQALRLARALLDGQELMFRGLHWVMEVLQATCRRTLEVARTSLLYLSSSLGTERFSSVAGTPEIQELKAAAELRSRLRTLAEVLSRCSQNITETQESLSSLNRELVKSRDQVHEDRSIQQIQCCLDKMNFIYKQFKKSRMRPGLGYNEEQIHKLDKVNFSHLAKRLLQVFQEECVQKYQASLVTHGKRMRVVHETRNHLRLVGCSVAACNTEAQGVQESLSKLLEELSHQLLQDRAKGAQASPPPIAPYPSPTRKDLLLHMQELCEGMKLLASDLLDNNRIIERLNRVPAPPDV
Type: biochemical
Summary of the method: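 His-tagged Sf9-expressed kinases at 0.1 or 0.02 μg/ml (TBK1) and 0.1 or 0.015 μg/ml (IKKε) for normal and sensitized formats, with myelin basic protein or casein substrate. ATP was at 2×Km (60 μM TBK1, 32 μM IKKε) plus 0.3 μCi [γ33]ATP. Reactions ran 30-45 min, were captured on P-81 filters, and counts were normalized to DMSO.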

Q: For `COC1CCN(c2cccc(Nc3nccc(-c4ccc(O[C@@H]5CCN(C(=O)CO)C5)c(C#N)c4)n3)c2)C1` (stereo partly drawn) [compound 546, 2-{[(3R)-1-(Hydroxyacetyl)pyrrolidin-3-yl]oxy}-5-(2-{[3-(3-methoxypyrrolidin-1-yl)phenyl]amino}pyrimidin-4-yl)benzonitrile], which IC50 is on record?
A: < 0.005 µM

Q: For `CC(C)(O)C(=O)N1CCC(Oc2ccc(-c3ccnc(Nc4ccc(N5CCOCC5)cc4)n3)cc2C#N)CC1` [Example 74, 2-{[1-(2-Hydroxy-2-methylpropanoyl)piperidin-4-yl]oxy}-5-(2-{[4-(morpholin-4-yl)phenyl]amino}pyrimidin-4-yl)benzonitrile], which IC50 is on record?
A: 0.05 to 0.5 µM

Q: How did the IC50 turn out when `N#Cc1cc(-c2ccnc(Nc3ccc(N4CCOCC4)cc3)n2)ccc1SC1CCCCC1` [Example 137, 2-(cyclohexylsulfanyl)-5-(2-{[4-(morpholin-4-yl)phenyl]amino}pyrimidin-4-yl)benzonitrile] was run?
A: 0.05 to 0.5 µM

Q: How did the IC50 turn out when `COc1cc(NC(=O)CN(C)C)cc(Nc2nccc(-c3ccc(OC)c(C#N)c3)n2)c1` [compound 336, N-(3-{[4-(3-Cyano-4-methoxyphenyl)pyrimidin-2-yl]amino}-5-methoxyphenyl)-N~2~,N~2~- dimethylglycinamide] was run?
A: 0.005 to 0.05 µM

Q: With `CCN(CC)CCN(CC)C(=O)Cc1cccc(Nc2nccc(-c3ccc(NC(=O)C(C)C)c(C#N)c3)n2)c1` [compound 424, N-[2-cyano-4-(2-{[3-(2-{[2-(diethylamino)ethyl] (ethyl)amino}-2-oxoethyl)phenyl]amino}pyrimidin-4-yl)phenyl]-2-methylpropanamide] as the compound, how does the IC50 read?
A: 0.05 to 0.5 µM

Q: Which IC50 does the source give for `COc1ccc(-c2ccnc(Nc3ccccc3)n2)cc1C#N` [compound 299, 2-Methoxy-5-[2-(phenylamino)pyrimidin-4-yl]benzonitrile] here?
A: 0.005 to 0.05 µM

Q: Which IC50 does the source give for `C[C@H](O)C(=O)N1CC(Oc2ccc(-c3ccnc(Nc4ccc(N5CCOCC5)cc4)n3)cc2C#N)C1` [Example 249, 2-({1-[(2S)-2-hydroxypropanoyl]azetidin-3-yl}oxy)-5-(2-{[4-(morpholin-4-yl)phenyl]amino}pyrimidin-4-yl)benzonitrile] here?
A: 0.05 to 0.5 µM

Q: `C[C@@H](O)C(=O)N1CCC(Oc2ccc(-c3ccnc(Nc4ccc(N5CCOCC5)cc4)n3)cc2C#N)CC1` [Example 140, 2-({1-[(2R)-2-hydroxypropanoyl]piperidin-4-yl}oxy)-5-(2-{[4-(morpholin-4-yl)phenyl]amino}pyrimidin-4-yl)benzonitrile] was tested. Which IC50 did it give?
A: 0.005 to 0.05 µM

Q: Which IC50 does the source give for `N#Cc1cc(-c2ccnc(Nc3cccc(Cn4cnnc4)c3)n2)ccc1OC1CCOCC1` [compound 595, 2-(Tetrahydro-2H-pyran-4-yloxy)-5-(2-{[3-(4H-1,2,4-triazol-4-ylmethyl)phenyl]amino}pyrimidin-4-yl)benzonitrile] here?
A: < 0.005 µM

Q: With `COc1ccc(-c2ccnc(Nc3ccc(S(=O)(=O)NCCN(C)C)c(OC)c3)n2)cc1C#N` [compound 384] as the compound, how does the IC50 read?
A: 0.005 to 0.05 µM

Q: For `COC(=O)C(C)(C)COc1ccc(-c2ccnc(Nc3ccc(N4CCOCC4)cc3)n2)cc1C#N` [Example 84, methyl 3-[2-cyano-4-(2-{[4-(morpholin-4-yl)phenyl]amino}pyrimidin-4-yl)phenoxy]-2,2-dimethylpropanoate], which IC50 is on record?
A: 0.05 to 0.5 µM

Q: With `N#Cc1cc(-c2ccnc(Nc3ccc(N4CCOCC4)cc3)n2)ccc1NC(=O)NC1CCOCC1` [Example 92, 1-[2-cyano-4-(2-{[4-(morpholin-4-yl)phenyl]amino}pyrimidin-4-yl)phenyl]-3-(tetrahydro-2H-pyran-4-yl)urea] as the compound, how does the IC50 read?
A: 0.005 to 0.05 µM

Q: `COc1cc(Nc2nccc(-c3ccc(OC4CCN(C(=O)CO)C4)c(C#N)c3)n2)ccc1N1CCC(N2CCN(C)CC2)CC1` (stereo not shown) [compound 513, 2-{[1-(hydroxyacetyl)pyrrolidin-3-yl]oxy}-5-[2-({3-methoxy-4-[4-(4-methylpiperazin-1-yl)piperidin-1-yl]phenyl}amino)pyrimidin-4-yl]benzonitrile] was tested. Which IC50 did it give?
A: 0.05 to 0.5 µM

Q: Which IC50 does the source give for `COc1cc(Nc2nccc(-c3ccc(OC4CCN(C(=O)CO)C4)c(C#N)c3)n2)ccc1OCCOCCN` (stereo not shown) [Example 199, 5-[2-({4-[2-(2-aminoethoxy)ethoxy]-3-methoxyphenyl}amino)pyrimidin-4-yl]-2-{[1-(hydroxyacetyl)pyrrolidin-3-yl]oxy}benzonitrile] here?
A: 0.005 to 0.05 µM

Q: `N#Cc1cc(-c2ccnc(Nc3ccc(N4CCOCC4)cc3)n2)ccc1NC(=O)C(F)(F)C(F)F` [compound 441, N-[2-Cyano-4-(2-{[4-(morpholin-4-yl)phenyl]amino}pyrimidin-4-yl)phenyl]-2,2,3,3-tetrafluoropropanamide] was tested. Which IC50 did it give?
A: 0.005 to 0.05 µM

Q: How did the IC50 turn out when `COc1ccc(-c2ccnc(Nc3ccc(S(=O)(=O)N4CCN(C)CC4)cc3)n2)cc1C#N` [compound 308, 2-Methoxy-5-[2-({4-[(4-methylpiperazin-1-yl)sulfonyl]phenyl}amino)pyrimidin-4-yl]benzonitrile] was run?
A: 0.05 to 0.5 µM

Q: `CC(C)C(=O)NCCOc1ccc(-c2ccnc(Nc3ccc(N4CCOCC4)cc3)n2)cc1C#N` [Example 153, N-{2-[2-cyano-4-(2-{[4-(morpholin-4-yl)phenyl]amino}pyrimidin-4-yl)phenoxy]ethyl}-2-methylpropanamide] was tested. Which IC50 did it give?
A: 0.05 to 0.5 µM

Q: Which IC50 does the source give for `CC(C)N1CCC(Oc2ccc(-c3ccnc(Nc4ccc(N5CCOCC5)cc4)n3)cc2C#N)CC1` [Example 227, 5-(2-{[4-(Morpholin-4-yl)phenyl]amino}pyrimidin-4-yl)-2-{[1-(propan-2-yl)piperidin-4-yl]oxy}benzonitrile] here?
A: 0.05 to 0.5 µM

Q: With `N#Cc1cc(-c2ccnc(Nc3ccc(N4CCOCC4)cc3)n2)ccc1NC(=O)NC1CCC(O)CC1` (stereo not shown) [Example 46, 1-[2-cyano-4-(2-{[4-(morpholin-4-yl)phenyl]amino}pyrimidin-4-yl)phenyl]-3-(4-hydroxycyclohexyl) urea] as the compound, how does the IC50 read?
A: 0.05 to 0.5 µM

Q: `N#Cc1cc(-c2ccnc(Nc3ccc(N4CCOCC4)cc3)n2)ccc1NC(=O)C1CCOCC1` [Example 97, N-[2-cyano-4-(2-{[4-(morpholin-4-yl)phenyl]amino}pyrimidin-4-yl)phenyl]tetrahydro-2H-pyran-4-carboxamide] was tested. Which IC50 did it give?
A: 0.05 to 0.5 µM

Q: Which IC50 does the source give for `COc1ccc(Nc2nccc(-c3ccc(OCc4ccccc4)c(C#N)c3)n2)cc1OC` [Example 106, 2-(Benzyloxy)-5-{2-[(3,4-dimethoxyphenyl)amino]pyrimidin-4-yl}benzonitrile] here?
A: 0.005 to 0.05 µM

Q: `COc1cc(Nc2nccc(-c3ccc(OC4CCNCC4)c(C#N)c3)n2)ccc1S(=O)(=O)NCCCN(C)C` [compound 398] was tested. Which IC50 did it give?
A: 0.05 to 0.5 µM

Q: For `N#Cc1cccc(-c2ccnc(Nc3ccc4c(c3)CCC4)n2)c1` [Example 198, 3-[2-(2,3-Dihydro-1H-inden-5-ylamino)pyrimidin-4-yl]benzonitrile], which IC50 is on record?
A: 0.05 to 0.5 µM

Q: `COc1cc(NC(=O)C2CCCC2)cc(Nc2nccc(-c3ccc(OC)c(C#N)c3)n2)c1` [compound 362, N-(3-{[4-(3-Cyano-4-methoxyphenyl)pyrimidin-2-yl]amino}-5-methoxyphenyl) cyclopentane-carboxamide] was tested. Which IC50 did it give?
A: 0.005 to 0.05 µM

Q: With `COc1ccc(-c2ccnc(Nc3cc(CN(C)C)c(OC)c(OC)c3)n2)cc1C#N` [Example 174, 5-[2-({3-[(Dimethylamino)methyl]-4,5-dimethoxyphenyl}amino)pyrimidin-4-yl]-2-methoxybenzonitrile] as the compound, how does the IC50 read?
A: 0.005 to 0.05 µM

Q: With `CC(C)(COc1ccc(-c2ccnc(Nc3ccc(N4CCOCC4)cc3)n2)cc1C#N)C(=O)N1CCOCC1` [compound 459, 2-[2,2-dimethyl-3-(morpholin-4-yl)-3-oxopropoxy]-5-(2-{[4-(morpholin-4-yl)phenyl]amino}pyrimidin-4-yl)benzonitrile] as the compound, how does the IC50 read?
A: 0.05 to 0.5 µM

Q: How did the IC50 turn out when `CC(=O)N1CCC(Oc2ccc(-c3ccnc(Nc4ccc(N5CCOCC5)cc4)n3)cc2C#N)C1` (stereo not shown) [Example 195, 2-[(1-Acetylpyrrolidin-3-yl)oxy]-5-(2-{[4-(morpholin-4-yl)phenyl]amino}pyrimidin-4-yl)benzonitrile] was run?
A: 0.005 to 0.05 µM

Q: `Cc1ccnc(NS(=O)(=O)c2ccc(Nc3nccc(-c4ccc(OC5CCOCC5)c(C#N)c4)n3)cc2)n1` [compound 635, 4-({4-[3-Cyano-4-(tetrahydro-2H-pyran-4-yloxy)phenyl]pyrimidin-2-yl}amino)-N-(4-methylpyrimidin-2-yl)benzene-sulfonamide] was tested. Which IC50 did it give?
A: < 0.005 µM

Q: How did the IC50 turn out when `COc1ccc(-c2ccnc(Nc3ccc(NC(=O)NCCCO)cc3)n2)cc1C#N` [Example 7, 1-(4-{[4-(3-Cyano-4-methoxyphenyl)pyrimidin-2-yl]amino}phenyl)-3-(3-hydroxypropyl)urea] was run?
A: 0.05 to 0.5 µM

Q: How did the IC50 turn out when `COc1cc(Nc2nccc(-c3ccc(OCC4CC4)c(C#N)c3)n2)ccc1C(=O)N1CC(OC)C1` [compound 621, 2-(Cyclopropylmethoxy)-5-[2-({3-methoxy-4-[(3-methoxyazetidin-1-yl)carbonyl]phenyl}amino)pyrimidin-4-yl]benzonitrile] was run?
A: < 0.005 µM

Q: For `N#Cc1cc(-c2ccnc(Nc3ccc(N4CCOCC4)cc3)n2)ccc1OCC1CCN(C(=O)C2(N)CC2)CC1` [Example 42, 2-({1-[(1-aminocyclopropyl)carbonyl]piperidin-4-yl}methoxy)-5-(2-{[4-(morpholin-4-yl)phenyl]amino}pyrimidin-4-yl)benzonitrile], which IC50 is on record?
A: 0.05 to 0.5 µM
